# Measured values taken from patent publication US20210403567A1, “METHODS OF TREATING CERVICAL CANCER BY ADMINISTERING A PD-1 INHIBITOR” (priority 2020, published 2021).
# Marks after values point to notes of the source that are not given here.
# How the values were obtained:
# [1] = test system: recurrent or metastatic cervical cancer; assay: Phase I expansion cohorts: cemiplimab 3 mg/kg IV Q2W alone or plus hfRT, tumor response (RECIST 1.1), PFS, OS; format: in vivo, human
# From the text: The combination therapy cohort enrolled patients for whom palliative hfRT was planned to a lesion that was causing some signs or symptoms. The radiated lesion was not followed as a target lesion for response assessments.
# Additional eligibility criteria included an Eastern Cooperative Oncology Group performance status score of 0 or 1, and adequate organ function. Patients were required to have at least one measurable lesion per Response Evaluation Criteria in Solid Tumors (RECIST) version 1.1. (Eisenhauer et al., Eur J Cancer 45 (2009) 228-47). In the combination therapy cohort, the measureable lesion(s) were in addition to the irradiated lesion.
# Assessments: Tumor histology was assessed per local pathology reports of tumor samples obtained at any time prior to study enrollment. […] Extensive safety evaluations were performed during screening and on Day 1 of each subsequent treatment cycle throughout the study. Routine safety evaluations were performed at each cemiplimab dosing visit. Tumor response assessments were performed by investigators, per RECIST 1.1, at the end of each 8-week treatment cycle. In combination therapy cohorts, the lesions selected for hfRT were not included in RECIST 1.1 assessments.
# Statistical analysis of clinical data: The safety summaries and analyses were performed on the safety analysis set. Data were summarized using descriptive statistics, along with two-sided 95% confidence interval (CI), by dose cohort. Continuous variables were summarized with mean, median, standard deviation, minimum, and maximum. Categorical variables were summarized with frequency and percentage. Kaplan-Meier analysis was performed for progression-free survival (PFS) and OS.
# [2] = test system: recurrent or metastatic cervical cancer; assay: Phase 3 trial, cemiplimab versus IC chemotherapy: quality of life, EORTC QLQ-C30 (GHS/QoL, functioning and symptom scales), MMRM LS mean change from baseline; format: in vivo, human; details: for Overall difference in LS mean change from baseline (95% CI), GHS/QoL / Overall difference in LS mean change from baseline (95% CI), Physical functioning / Overall difference in LS mean change from baseline (95% CI), Role functioning: EORTC QLQ-C30, positive numbers favor cemiplimab; for Overall difference in LS mean change from baseline (95% CI), GHS/QoL / Overall difference in LS mean change from baseline (95% CI), Physical functioning / Overall difference in LS mean change from baseline (95% CI), Role functioning / Overall difference in LS mean change from baseline (95% CI), Appetite loss / Overall difference in LS mean change from baseline (95% CI), Fatigue / Overall difference in LS mean change from baseline (95% CI), Pain: cemiplimab minus chemotherapy; for Overall difference in LS mean change from baseline (95% CI), Appetite loss / Overall difference in LS mean change from baseline (95% CI), Fatigue / Overall difference in LS mean change from baseline (95% CI), Pain: EORTC QLQ-C30 symptom scale, negative numbers favor cemiplimab; for Difference in LS mean change, Cemiplimab versus Chemotherapy, GHS/QoL / Difference in LS mean change, Cemiplimab versus Chemotherapy, Physical Functioning / LS mean change from baseline, EORTC QLQ-C30 GHS/QoL / LS mean change from baseline, EORTC QLQ-C30 Physical Functioning: SCC patients
# Experimental: QOL is measured by the EORTC QLQ-C30.
# Quality of Life Questionnaires: Patient-reported outcomes are measured using the validated patient self-administered EORTC QLQ-C30 questionnaire. Patients are asked to complete these questionnaires prior to any study procedures being performed at a given study visit (during the on-study/treatment and follow-up periods).
# QoL: Longitudinal change from baseline at each PRO assessment in the GHS/QoL and PF scales was analyzed using a mixed model with repeated measures (MMRM). Higher scores on these scales indicate better health status/function. […] The model generated least squares (LS) mean estimates, standard errors, 95% CIs and p-values (where applicable) for mean changes from baseline on each PRO assessment.
# At baseline and Day 1 of each treatment cycle (up to 16), patients were administered the EORTC QLQ-030. Mixed-effects repeated measures models estimated least squares (LS) mean change from baseline across all scales. Responder analyses determined the proportions with clinically meaningful (using 10-point threshold) improvement or deterioration, or stability on QLQ-030.
# [3] = investigator assessment, n = 10 per cohort
substance,measurement,setting,value
cemiplimab,objective response rate among cervical cancer patients enrolled in the phase I study,[1]; 4/23 combined: dose escalation plus expansion cohorts,17%
same,responding patients in expansion cohorts,[1]; both expansion cohorts combined,2/20
same,"NE (not evaluable), n (%)","[1]; includes missing and unknown tumor response, n = 10 per cohort",1 n (%)
same,"ORR, % (95% CI)","[1]; investigator assessment, RECIST 1.1, n = 10 per cohort",10.0%
same,"Partial response, n (%)",[1]; [3],1 n (%)
same,"Progressive disease, n (%)",[1]; [3],5 n (%)
same,"Stable disease, n (%)",[1]; [3],3 n (%)
same,Kaplan-Meier estimation of median OS,[1]; n = 10 per cohort,10.3 months
same,Kaplan-Meier estimation of median PFS,[1]; n = 10 per cohort,1.9 months
same,patients with best response of stable disease,[1]; n = 10 per cohort,30%
same,"Disease control rate, % (95% CI)","[1]; objective response or stable disease, n = 10 per cohort",40.0%
same,patients with partial response,[1]; one patient in each cohort of 10,10%
same,DOR (duration of response),[1]; one responder in each group,11.2 months
same,Observed time to response,[1]; one responder in each group,1.8 months
same,"Durable disease control rate, % (95% CI)","[1]; without progression for at least 16 weeks (105 days), n = 10 per cohort",20.0%
same,"Overall difference in LS mean change from baseline (95% CI), GHS/QoL",[2]; AC (post-hoc),2.0 (−5.4; 9.3)
same,"Overall difference in LS mean change from baseline (95% CI), Physical functioning",[2]; AC (post-hoc),2.6 (−4.3; 9.5)
same,"Overall difference in LS mean change from baseline (95% CI), Role functioning",[2]; AC (post-hoc),8.3 (−0.0; 16.6)
same,"Overall difference in LS mean change from baseline (95% CI), GHS/QoL",[2]; Overall population,7.8 (3.3; 12.3)*
same,"Overall difference in LS mean change from baseline (95% CI), Physical functioning",[2]; Overall population,8.3 (4.3; 12.2)*
same,"Overall difference in LS mean change from baseline (95% CI), Role functioning",[2]; Overall population,13.1 (8.3; 17.9)^‡
same,"Overall difference in LS mean change from baseline (95% CI), GHS/QoL",[2]; SCC,8.5 (3.8; 13.2)^†
same,"Overall difference in LS mean change from baseline (95% CI), Physical functioning",[2]; SCC,8.4 (4.1; 12.6)^†
same,"Overall difference in LS mean change from baseline (95% CI), Role functioning",[2]; SCC,11.4 (6.3; 16.6)^‡
same,"Overall difference in LS mean change from baseline (95% CI), Appetite loss",[2]; AC (post-hoc),−5.9 (−19.8; 2.4)
same,"Overall difference in LS mean change from baseline (95% CI), Fatigue",[2]; AC (post-hoc),−5.9 (−13.9; 2.2)
same,"Overall difference in LS mean change from baseline (95% CI), Pain",[2]; AC (post-hoc),−7.6 (−17.1; 1.9)
same,"Overall difference in LS mean change from baseline (95% CI), Appetite loss",[2]; Overall population,−11.3 (−16.6; −6.0)^‡
same,"Overall difference in LS mean change from baseline (95% CI), Fatigue",[2]; Overall population,−9.1 (−14.1; −4.0)^‡
same,"Overall difference in LS mean change from baseline (95% CI), Pain",[2]; Overall population,−10.2 (−16.2; −4.3)^‡
same,"Overall difference in LS mean change from baseline (95% CI), Appetite loss",[2]; SCC,−10.9 (−16.6; −5.2)^‡
same,"Overall difference in LS mean change from baseline (95% CI), Fatigue",[2]; SCC,−8.6 (−14.0; −3.3)^‡
same,"Overall difference in LS mean change from baseline (95% CI), Pain",[2]; SCC,−10.4 (−16.9; −3.8)^‡
same,"Difference in LS mean change, Cemiplimab versus Chemotherapy, GHS/QoL",[2]; C2D1,4.14
same,"Difference in LS mean change, Cemiplimab versus Chemotherapy, Physical Functioning",[2]; C2D1,4.09
same,"LS mean change from baseline, EORTC QLQ-C30 GHS/QoL",[2]; C2D1,−2.02
same,"LS mean change from baseline, EORTC QLQ-C30 Physical Functioning",[2]; C2D1,−1.82
same,"Difference in LS mean change, Cemiplimab versus Chemotherapy, GHS/QoL",[2]; C3D1,9.41
same,"Difference in LS mean change, Cemiplimab versus Chemotherapy, Physical Functioning",[2]; C3D1,7.33
same,"LS mean change from baseline, EORTC QLQ-C30 GHS/QoL",[2]; C3D1,1.18
same,"LS mean change from baseline, EORTC QLQ-C30 Physical Functioning",[2]; C3D1,2.10
same,"Difference in LS mean change, Cemiplimab versus Chemotherapy, GHS/QoL",[2]; C4D1,12.36
same,"Difference in LS mean change, Cemiplimab versus Chemotherapy, Physical Functioning",[2]; C4D1,10.41
same,"LS mean change from baseline, EORTC QLQ-C30 GHS/QoL",[2]; C4D1,5.15
same,"LS mean change from baseline, EORTC QLQ-C30 Physical Functioning",[2]; C4D1,5.21
same,"Difference in LS mean change, Cemiplimab versus Chemotherapy, GHS/QoL",[2]; C5D1,6.94
same,"Difference in LS mean change, Cemiplimab versus Chemotherapy, Physical Functioning",[2]; C5D1,6.86
same,"LS mean change from baseline, EORTC QLQ-C30 GHS/QoL",[2]; C5D1,0.85
same,"LS mean change from baseline, EORTC QLQ-C30 Physical Functioning",[2]; C5D1,−0.17
same,"Difference in LS mean change, Cemiplimab versus Chemotherapy, GHS/QoL",[2]; C6D1,6.83
same,"Difference in LS mean change, Cemiplimab versus Chemotherapy, Physical Functioning",[2]; C6D1,7.11
same,"LS mean change from baseline, EORTC QLQ-C30 GHS/QoL",[2]; C6D1,−0.17
same,"LS mean change from baseline, EORTC QLQ-C30 Physical Functioning",[2]; C6D1,0.82
same,"Difference in LS mean change, Cemiplimab versus Chemotherapy, GHS/QoL",[2]; C7D1,11.25
same,"Difference in LS mean change, Cemiplimab versus Chemotherapy, Physical Functioning",[2]; C7D1,14.30
same,"LS mean change from baseline, EORTC QLQ-C30 GHS/QoL",[2]; C7D1,2.09
same,"LS mean change from baseline, EORTC QLQ-C30 Physical Functioning",[2]; C7D1,−0.07
